In patent publication US20230322753A1, “HETEROARYL DERIVATIVE, METHOD FOR PREPARATION THEREOF, AND PHARMACEUTICAL COMPOSITION COMPRISING SAME AS ACTIVE INGREDIENT” (VORONOI INC., priority 2020, published 2023) one finds GI50 data, which are given here for 49 molecules.

As usually defined, the GI50 is the concentration giving 50% growth inhibition.

Some results are limits rather than exact numbers.

One assay deals with Ba/F3 cells expressing EGFR Exon20 ins NPH. The assay is described as follows: Ba/F3 proliferation suppression activity, cells expressing EGFR Exon20 ins NPH. Format: cell-based. Particulars: Mus musculus, BaF3, 72 hours, CellTiter-Glo. As for the experimental part: A following experiment was carried out to evaluate the suppression activity of the compounds according to the present invention against the proliferation of Ba/F3 which expresses EGFR mutations.
(§1) For the Ba/F3 cells, a RPMI-1640 medium containing 10% FBS and 5 ng/ml IL-3 (R&D Systems) was used. The transduced Ba/F3 cells were cultured in a medium, which is same as the above medium, but 1 ug/ml puromycin (Invitrogen) was additionally added to.
(§2) 24 hours before the treatment of the cells with the compounds, 3000 to 5000 cells were distributed into each well of a white clear bottom 96 well plate (Corning). The compounds were diluted in a dimethyl sulfoxide (e.g. dilution ratio of 3:1 and total 12 concentrations) and then injected by 0.5 ul respectively, such that a final concentration amounted to 0.3 nM to 50 uM. 72 hours after the treatment with the compounds, the measurement of live cells was made in such way that these cells were stored for 10 minutes at a room temperature using a CellTiter-Glo luminescent cell-viability reagent (Promega) and then their luminescence intensities were measured using a reader (i.e. Synergy Neo, Biotek). Each test was repeated three times.
(§3) resulting values were calculated as a cell growth ratio (%) compared to a control. Then, the graphs were drawn and the […] values were calculated by using a program, GraphPad Prism version 5.0.
A general note: Cellular ATP, detected with luciferase, serves as a proxy for viable cell number.
On to `C=CC(=O)Nc1cc(Nc2cc(N3OCC[C@@H]3c3cccc(C(F)(F)F)c3F)ncn2)c(OC)cc1N1CCC(N2CCN(C3CC3)CC2)CC1` [Compound 62], for which the GI50 is under 50 nM. The same measure, in the same setting: the figure for `C=CC(=O)Nc1cc(Nc2cc(N3OCC[C@@H]3c3cc(F)cc(C(F)(F)F)c3)ncn2)c(OC)cc1N1CCC(N2CCN(C3CC3)CC2)CC1` [Compound 1] is under 50 nM; for `C=CC(=O)Nc1cc(Nc2cc(N3OCC[C@@H]3c3cc(F)cc(C(F)(F)F)c3)ncn2)c(OC)cc1N1CCN(C)[C@@H](C)C1` [Compound 12] it is 50 to 500 nM. For `C=CC(=O)Nc1cc(Nc2cc(N3OCC[C@@H]3c3ccc(F)c(C(F)(F)F)c3)ncn2)c(OC)cc1N1CC[C@@H](N(C)C)C1` [Compound 43], the GI50 is under 50 nM. Turning to `C=CC(=O)Nc1cc(Nc2cc(N3OCC[C@@H]3c3cc(F)cc(F)c3)ncn2)c(OC)cc1SCCN(C)C` [Compound 101], the GI50 is under 50 nM. Same read-out and setting: with `C=CC(=O)Nc1cc(Nc2cc(N3OCC[C@@H]3c3ccc(F)c(C(F)(F)F)c3)ncn2)c(OC)cc1N1CCOCC1` [Compound 63] the figure was 50 to 500 nM. The same measure, in the same setting: the figure for `C=CC(=O)Nc1cc(Nc2cc(N3OCC[C@@H]3c3cccc(C(F)(F)F)c3F)ncn2)c(OC)cc1N1CCO[C@@H](C)C1` [Compound 75] is 50 to 500 nM; for `C=CC(=O)Nc1cc(Nc2cc(N3OCC[C@@H]3c3cccc(C(F)(F)F)c3F)ncn2)c(OC)cc1N1C[C@@H]2C[C@H]1CO2` [Compound 92] it is 50 to 500 nM; for `C=CC(=O)Nc1cc(Nc2cc(N3OCC[C@@H]3c3cccc(C(F)(F)F)c3F)ncn2)c(OC)cc1N1CCN(C2COC2)CC1` [Compound 69] it is under 50 nM. On the same count and under the same terms, with `C=CC(=O)Nc1cc(Nc2cc(N3OCC[C@@H]3c3ccc(F)c(C(F)(F)F)c3)ncn2)c(OC)cc1N1CCN(C)CC1` [Compound 37] the figure was under 50 nM; with `C=CC(=O)Nc1cc(Nc2cc(N3OCC[C@@H]3c3cccc(C(F)(F)F)c3F)ncn2)c(OC)cc1N1CCC(N2CCN(C)CC2)CC1` [Compound 90], under 50 nM. Turning to `C=CC(=O)Nc1cc(Nc2cc(N3OCC[C@@H]3c3cccc(C(F)(F)F)c3F)ncn2)c(OC)cc1N(C)CCNC` [Compound 87], the GI50 was under 50 nM.

Regarding `C=CC(=O)Nc1cc(Nc2cc(N3OCC[C@@H]3c3cc(F)cc(C(F)(F)F)c3)ncn2)c(OC)cc1N1CCN(C)[C@H](C)C1` [Compound 11], the GI50 is 50 to 500 nM.

In the case of `C=CC(=O)Nc1cc(Nc2cc(N3OCC[C@@H]3c3cc(F)cc(C(F)(F)F)c3)ncn2)c(OC)cc1N1CCN(C)CC1` [Compound 3], the 50% growth inhibitory concentration (GI50) was 50 to 500 nM. On the same count and under the same terms, the figure for `C=CC(=O)Nc1cc(Nc2cc(N3OCC[C@@H]3c3cccc(C(F)(F)F)c3F)ncn2)c(OC)cc1N1CCC(N2CCN(C)C(=O)C2)CC1` [Compound 74] is 50 to 500 nM; for `C=CC(=O)Nc1cc(Nc2cc(N3OCC[C@@H]3c3cc(F)cc(C(F)(F)F)c3)ncn2)c(OC)cc1N1CCN(C2CC2)[C@H](C)C1` [Compound 5] it is 50 to 500 nM. On the same count and under the same terms, with `C=CC(=O)Nc1cc(Nc2cc(N3OCC[C@@H]3c3cccc(C(F)(F)F)c3F)ncn2)c(OC)cc1N1CCC(N2CCOCC2)CC1` [Compound 66] the figure was under 50 nM; with `C=CCN1CCN(c2cc(OC)c(Nc3cc(N4OCC[C@@H]4c4cccc(C(F)(F)F)c4F)ncn3)cc2NC(=O)C=C)CC1` [Compound 94], under 50 nM; with `C=CC(=O)Nc1cc(Nc2cc(N3OCC[C@@H]3c3cc(F)cc(C(F)(F)F)c3)ncn2)c(OC)cc1N1CCC(N(CC)CC)CC1` [Compound 16], under 50 nM.

For `C=CC(=O)Nc1cc(Nc2ncc(C(=O)OC(C)C)c(-c3cn(C)c4ccccc34)n2)c(OC)cc1N(C)CCN(C)C` [TAK788, reference compound], the GI50 was under 50 nM.

As for `C=CC(=O)Nc1cc(Nc2cc(N3OCC[C@@H]3c3cc(F)cc(C(F)(F)F)c3)ncn2)c(OC)cc1N1CCC(N2CCC2)CC1` [Compound 19], the GI50 is under 50 nM. Regarding `C=CC(=O)Nc1cc(Nc2cc(N3OCC[C@@H]3c3cccc(C(F)(F)F)c3F)ncn2)c(OC)cc1N1CCN(C)[C@H](C)C1` [Compound 80], the GI50 was under 50 nM. For `C=CC(=O)Nc1cc(Nc2cc(N3OCC[C@@H]3c3cccc(C(F)(F)F)c3)ncn2)c(OC)cc1N1CCCN(C2CC2)CC1` [Compound 29], the GI50 is 50 to 500 nM. Still for that read-out and setting: the figure for `C=CC(=O)Nc1cc(Nc2cc(N3OCC[C@@H]3c3cccc(C(F)(F)F)c3)ncn2)c(OC)cc1N1CCN(C)[C@H](C)C1` [Compound 8] is under 50 nM; for `C=CC(=O)Nc1cc(Nc2cc(N3OCC[C@@H]3c3cccc(C(F)(F)F)c3F)ncn2)c(OC)cc1N1CCC(N2CCN(C3CC3)C(C)(C)C2)CC1` [Compound 83] it is 50 to 500 nM. The same measure, in the same setting: with `C=CC(=O)Nc1cc(Nc2cc(N3OCC[C@@H]3c3ccc(F)c(C(F)(F)F)c3)ncn2)c(OC)cc1N1CCC(N2CCO[C@H](C)C2)CC1` [Compound 59] the figure was under 50 nM; with `C=CC(=O)Nc1cc(Nc2cc(N3OCC[C@@H]3c3ccc(F)c(C(F)(F)F)c3)ncn2)c(OC)cc1N1CCO[C@@H](C)C1` [Compound 56], 50 to 500 nM. Take `C=CC(=O)Nc1cc(Nc2cc(N3OCCC3c3cc(Cl)cc(C(F)(F)F)c3)ncn2)c(OC)cc1N1CCN(CC)CC1` (stereo not shown) [Compound 50]: the GI50 was 50 to 500 nM. `C=CC(=O)Nc1cc(Nc2cc(N3OCC[C@@H]3c3cccc(C(F)(F)F)c3F)ncn2)c(OC)cc1N1CCC(N2CCN(C3COC3)CC2)CC1` [Compound 84]: the GI50 is under 50 nM. In the case of `C=CC(=O)Nc1cc(Nc2cc(N3OCC[C@@H]3c3cccc(C(F)(F)F)c3F)ncn2)c(OC)cc1N1CC[C@@H](N(C)C)C1` [Compound 88], the 50% growth inhibitory concentration (GI50) was in the range of 50 to 500 nM. On to `C=CC(=O)Nc1cc(Nc2cc(N3OCC[C@@H]3c3cccc(C(F)(F)F)c3)ncn2)c(OC)cc1N1CCN(C2CC2)[C@H](C)C1` [Compound 9], for which the GI50 is 50 to 500 nM. With `C=CC(=O)Nc1cc(Nc2cc(N3OCC[C@@H]3c3cc(F)cc(C(F)(F)F)c3)ncn2)c(OC)cc1N1CCN(CC)CC1` [Compound 4], the GI50 is under 50 nM.

With `C=CC(=O)Nc1cc(Nc2cc(N3OCC[C@@H]3c3ccc(F)c(C(F)(F)F)c3)ncn2)c(OC)cc1N1CCN(C(C)=O)CC1` [Compound 46], the GI50 is under 50 nM.

On to `C=CC(=O)Nc1cc(Nc2cc(N3OCC[C@@H]3c3cccc(C(F)(F)F)c3F)ncn2)c(OC)cc1N1CCN(C)[C@@H](C)C1` [Compound 76], for which the GI50 is under 50 nM. On the same count and under the same terms, with `C=CC(=O)Nc1cc(Nc2cc(N3OCC[C@@H]3c3cccc(C(F)(F)F)c3)ncn2)c(OC)cc1N1CCC(N2CCC2)CC1` [Compound 21] the figure was under 50 nM. On the same count and under the same terms, with `C=CC(=O)Nc1cc(Nc2cc(N3OCC[C@@H]3c3cccc(C(F)(F)F)c3)ncn2)c(OC)cc1N1CCN(C2COC2)CC1` [Compound 23] the figure was under 50 nM. With `C=CC(=O)Nc1cc(Nc2cc(N3OCC[C@@H]3c3ccc(Cl)c(C(F)(F)F)c3)ncn2)c(OC)cc1N1CCN(CC)CC1` [Compound 33], the GI50 is 50 to 500 nM. Still for that read-out and setting: with `C=CC(=O)Nc1cc(Nc2cc(N3OCC[C@@H]3c3ccc(F)c(C(F)(F)F)c3)ncn2)c(OC)cc1N1C[C@H]2C[C@@H]1CO2` [Compound 45] the figure was 50 to 500 nM. For `C=CC(=O)Nc1cc(Nc2cc(N3OCC[C@@H]3c3cccc(C(F)(F)F)c3)ncn2)c(OC)cc1N1CCC(N2CCC(N3CCN(C4CC4)CC3)CC2)CC1` [Compound 13], the GI50 was in the range of 50 to 500 nM. The same measure, in the same setting: the figure for `C=CC(=O)Nc1cc(Nc2cc(N3OCC[C@@H]3c3ccc(F)c(C(F)(F)F)c3)ncn2)c(OC)cc1N1CCC(N2CCC2)CC1` [Compound 48] is under 50 nM; for `C=CC(=O)Nc1cc(Nc2cc(N3OCC[C@@H]3c3cc(F)cc(F)c3)ncn2)c(OC)cc1N1CCSCC1` [Compound 107] it is 50 to 500 nM. Still for that read-out and setting: the figure for `C=CC(=O)Nc1cc(Nc2cc(N3OCC[C@@H]3c3ccc(F)c(C(F)(F)F)c3)ncn2)c(OC)cc1N1CCO[C@H](C)C1` [Compound 57] is 50 to 500 nM; for `C=CC(=O)Nc1cc(Nc2cc(N3OCC[C@@H]3c3cccc(C(F)(F)F)c3F)ncn2)c(OC)cc1N1CCO[C@H](C)C1` [Compound 79] it is 50 to 500 nM. On the same count and under the same terms, with `C=CC(=O)Nc1cc(Nc2cc(N3OCC[C@@H]3c3cccc(C(F)(F)F)c3F)ncn2)c(OC)cc1N1CCC(N2CCCN(C3CC3)CC2)CC1` [Compound 77] the figure was 50 to 500 nM; with `C=CC(=O)Nc1cc(Nc2cc(N3OCC[C@@H]3c3cccc(C(F)(F)F)c3F)ncn2)c(OC)cc1N1CCC(N2C[C@@H]3C[C@H]2CO3)CC1` [Compound 96], under 50 nM.

On to `C=CC(=O)Nc1cc(Nc2cc(N3OCC[C@@H]3c3ccc(F)c(C(F)(F)F)c3)ncn2)c(OC)cc1N1C[C@@H]2C[C@H]1CO2` [Compound 54], for which the GI50 lay within 50 to 500 nM.

Turning to `C=CC(=O)Nc1cc(Nc2cc(N3OCC[C@@H]3c3cc(F)cc(C(F)(F)F)c3)ncn2)c(OC)cc1N(C)CCN(C)C` [Compound 17], the GI50 was under 50 nM. Same read-out and setting: the figure for `C=CC(=O)Nc1cc(Nc2cc(N3OCC[C@@H]3c3cccc(C(F)(F)F)c3F)ncn2)c(OC)cc1N1CCC[C@@H]1CN1CCC1` [Compound 72] is 50 to 500 nM; for `C=CC(=O)Nc1cc(Nc2cc(N3OCC[C@@H]3c3cccc(C(F)(F)F)c3)ncn2)c(OC)cc1N1CCN(C2CC2)[C@@H](C)C1` [Compound 10] it is 50 to 500 nM.

The test system of a further assay is Ba/F3 cells expressing HER2 YVMA Exon 20ins. The assay is described as follows: Ba/F3 proliferation suppression activity, cells expressing HER2 YVMA Exon 20ins. Format: cell-based. The following applies: Mus musculus, BaF3, 72 hours, CellTiter-Glo. On the procedure:
as §1, §2, §3
`C=CC(=O)Nc1cc(Nc2cc(N3OCC[C@@H]3c3cccc(C(F)(F)F)c3F)ncn2)c(OC)cc1N1CCC(N2CCN(C3CC3)CC2)CC1` [Compound 62]: the GI50 was under 50 nM. Still for that read-out and setting: the figure for `C=CC(=O)Nc1cc(Nc2cc(N3OCC[C@@H]3c3cc(F)cc(C(F)(F)F)c3)ncn2)c(OC)cc1N1CCC(N2CCN(C3CC3)CC2)CC1` [Compound 1] is 50 to 500 nM; for `C=CC(=O)Nc1cc(Nc2cc(N3OCC[C@@H]3c3ccc(F)c(C(F)(F)F)c3)ncn2)c(OC)cc1N1CCN(C)CC1` [Compound 37] it is under 50 nM.
